Measured values: patent US9663562B2, “Compositions and methods for treating cancer” (Dana-Farber Cancer Institute, Inc., priority 2013, dated 2017)

How the values were obtained:
Assay type in all cases: cell-based, human
[1] = test system: MUC16-positive ASPC1 pancreatic cancer cells; assay: Viable cell number by trypan blue staining, ASPC1 cells; details: ASPC1, 5 microM, 5 days, vs control
Description: (§1) FIG. 1 illustrates the Effects of MUC16 Inhibitor Peptide (IP-16) on MUC16-positive cancer cells. Human MUC16-positive OVCAR3 ovarian cancer (A), MIAPACA2 pancreatic cancer (B) and ASPC1 pancreatic cancer (C) cells were left untreated (Control) or treated with 5 microM IP-16(RRRRRRRR-CLICGVLVTTRRRKK; SEQ ID NO:5) or CP-16 (RRRRRRRR-ALIAGVLVTTRRRKK; SEQ ID NO:6) for 5 days. Viable cell number was determined by trypan blue staining. The results are expressed as cell number (mean+SD of three determinations).
(§2) Viable cell number was determined by trypan blue staining.

[2] = test system: MUC16-positive OVCAR3 ovarian cancer cells; assay: Viable cell number by trypan blue staining, OVCAR3 cells; details: OVCAR3, 5 microM, 5 days, vs control
Description: as §1, §2

[3] = test system: MUC16-negative HEK293T cells; assay: Growth of MUC16-negative control cells
[4] = test system: MUC16-positive MIAPACA2 pancreatic cancer cells; assay: Viable cell number by trypan blue staining, MIAPACA2 cells; details: MIAPACA2, 5 microM, 5 days, vs control
Description: as §1, §2

## RRRRRRRR-CLICGVLVTTRRRKK (RRRRRRRRCLICGVLVTTRRRKK) [IP-16]
[1]
  cell number (viable cells): significantly reduced
[2]
  cell number (viable cells): significantly reduced
[3]
  effect on growth: little, if any, effect
[4]
  cell number (viable cells): significantly reduced
